Results taken from patent US10220033B2, “Substituted benzoxazepine for cancer therapy” (University of Cape Town, priority 2014, dated 2019).
Where two headings read alike, the source gives them in different places.

Assays:
Assay in all cases: MTT assay for cell viability, IC50 determination
[1] = test system: CaSki cervical cancer cell line; format: cell-based; settings: MTT
Experimental: (§1) Cells were plated in 96-well plates and treated with varying concentrations of a test compound for 48 hours, after which MTT dye, 3-(4,5-dimethylthiazol-2-yl)-2,5-diphenyltetrazolium bromide (Sigma), was added, and crystals solubilised 4 hours later using Solubilisation Reagent (10% SLS in 0.01 M HCl). Absorbencies were measured at 595 nm the following day using a BioTek microplate spectrophotometer (Winooski, Vt., USA) and IC50 curves were generated using GraphPad Prism.

[2] = test system: HeLa cervical cancer cell line; format: cell-based; settings: for IC50: Homo sapiens, HeLa
Experimental: as §1

[3] = test system: KYSE180 oesophageal cancer cell line; format: cell-based; settings: Homo sapiens, KYSE-180, 48 hours
Experimental: as §1

[4] = test system: WHCO5 oesophageal cancer cell line; format: cell-based, human; settings: Homo sapiens, 48 h, MTT
Experimental: as §1

[5] = Homo sapiens, Ca-Ski, 48 h, read-out: IC50
[6] = 48 h, 48 hours, MTT, read-out: IC50

Row | SMILES | IC50 [1, 5] [µM] | IC50 [2, 6] [µM] | IC50 [3] [µM] | IC50 [4] [µM] | cell-killing effect ([2]; HeLa cells, concentration range of up to 6.5 mM (FIG. 3A)) | IC50 ([2]; HeLa cells (FIG. 3B), read-out: IC50 concentration (cell-killing effect)) [µM] | IC50 ([1]; 48 hours)
1 | CCCCn1c(N)c(-c2nc3ccccc3[nH]2)c2nc3ccccc3nc21 [Compound E] | 14.3 | 8.29 | 8.79 | 5.94 |  |  | 
2 | CCCn1c(N)c(-c2nc3ccccc3[nH]2)c2nc3ccccc3nc21 [Compound D] | 12.2 | 8.38 | 14.8 | 12.2 |  |  | 
3 | Cc1ccc(OC[C@@H](O)CN2CCN(CCO)CC2)cc1C [VII, (2S)-1-(3,4-dimethylphenoxy)-3-[4-(2-hydroxyethyl)piperazin-1-yl]propan-2-ol] | 22.2 |  |  |  |  |  | 
4 | CCN(CC)CCCn1c(N)c(-c2nc3ccccc3[nH]2)c2nc3ccccc3nc21 [Compound B] | 5.59 | 6.36 | 6.03 | 5.7 |  |  | 
5 | COc1ccc(C)cc1NC(=O)[C@@H](NCc1nc2ccccc2n1C)c1ccccc1 [VI, (2S)-N-(2-methoxy-5-methyl-phenyl)-2-[(1-methylbenzimidazol-2-yl)methylamino]-2-phenyl-acetamide] | 19.1 |  |  |  |  |  | 
6 | c1ccc2nccnc2c1 [quinoxaline, reference compound] |  |  |  |  | No cell-killing effect was observed |  | 
7 | OCCCNCc1cc2cc3c(cc2nc1N1CCN(c2cccc(Cl)c2)CC1)OCO3 [XV, 3-[[6-[4-(3-chlorophenyl)piperazin-1-yl]-[1,3]dioxolo[4,5-g]quinolin-7-yl]methylamino]propan-1-ol] | 37.7 |  |  |  |  |  | 
8 | CCOC(=O)c1cc2c(=O)n3cc(C)ccc3nc2[n+](CCCN2CCOCC2)c1N [V, ethyl 2-imino-8-methyl-1-[3-(4-morpholinyl)propyl]-5-oxo-1,5-dihydro-2H-dipyrido[1,2-a:2′,3′-d]pyrimidine-3-carboxylate] | 16.4 |  |  |  |  |  | 
9 | CCCn1c(N)c(-c2nc3ccccc3n2C)c2nc3ccccc3nc21 [Compound J] | 38.4 | 22.2 | 33.1 | 11.8 |  |  | 
10 | Cc1ccc2cc(CNCCCN3C[C@@H]4C=C[C@H]3C4)c(N3CCC(O)CC3)nc2c1 (stereo in doubt) [VIII, 1-[3-[[3-[(1S,4R)-5-azabicyclo[2.2.1]hept-2-en-5-yl]propylamino]methyl]-7-methyl-2-quinolyl]piperidin4-ol] | 24.4 |  |  |  |  |  | 
11 | CC(C)Cn1c(N)c(-c2nc3ccccc3[nH]2)c2nc3ccccc3nc21 [Compound F] | 7.55 | 6.77 | 5.35 | 6.59 |  |  | 
12 | c1ccc2[nH]cnc2c1 [Benzimidazole, benzimidazole, reference compound] |  |  |  |  |  | 2080 | 
13 | CN1CCc2cc(CNC3CCN(c4ccc(C(=O)NC5CCCC5)cc4)CC3)ccc21 [XVI, N-cyclopentyl-4-[4-[(1-methylindolin-5-yl)methylamino]-1-piperidyl]benzamide] | 46.8 |  |  |  |  |  | 
14 | Nc1c(-c2nc3ccccc3[nH]2)c2nc3ccccc3nc2n1CCCO [Compound H] | 10 | 4.04 | 1.18 | 6.3 |  |  | 
15 | Nc1c(-c2nc3ccccc3[nH]2)c2nc3ccccc3nc2n1CCCn1ccnc1 [Compound C] | 9.49 | 7.19 | 8.46 | 8.32 |  |  | 
16 | CC(C)CCn1c(N)c(-c2nc3ccccc3[nH]2)c2nc3ccccc3nc21 [Compound G] | 6.17 | 6.38 | 5.51 | 6.14 |  |  | 
17 | Cc1ccc2c(c1)c1c(n2C[C@@H](O)CNC[C@@H]2CCCO2)CCCC1 [XIV, (2S)-1-(6-methyl-1,2,3,4-tetrahydrocarbazol-9-yl)-3-[[(2S)-tetrahydrofuran-2-yl]methylamino]propan-2-ol] | 31.7 |  |  |  |  |  | 
18 | Cn1c(-c2c(N)n(CCCN3CCOCC3)c3nc4ccccc4nc23)nc2ccccc21 [Compound I] |  | 15.4 | 22 | 19.6 |  |  | Does not converge.
19 | CCn1c(N)c(-c2nc3ccccc3[nH]2)c2nc3ccccc3nc21 [Compound K] | 6.62 | 4.16 | 7.23 | 6.79 |  |  | 
